ChEMBL document CHEMBL1159169, “Nuclear variations of quinuclidine substance P antagonists: 2-diphenylmethyl-1-azabicyclo[3.2.2]nonan-3-amines” (Bioorg Med Chem Lett, 1993)

What follows are compounds tested against Substance-P receptor (Homo sapiens, UniProt P25103) (assay: Compound was evaluated for the inhibition of binding of [3H]SP in human IM-9 cells).
Sequence of Substance-P receptor (P25103 whole entry): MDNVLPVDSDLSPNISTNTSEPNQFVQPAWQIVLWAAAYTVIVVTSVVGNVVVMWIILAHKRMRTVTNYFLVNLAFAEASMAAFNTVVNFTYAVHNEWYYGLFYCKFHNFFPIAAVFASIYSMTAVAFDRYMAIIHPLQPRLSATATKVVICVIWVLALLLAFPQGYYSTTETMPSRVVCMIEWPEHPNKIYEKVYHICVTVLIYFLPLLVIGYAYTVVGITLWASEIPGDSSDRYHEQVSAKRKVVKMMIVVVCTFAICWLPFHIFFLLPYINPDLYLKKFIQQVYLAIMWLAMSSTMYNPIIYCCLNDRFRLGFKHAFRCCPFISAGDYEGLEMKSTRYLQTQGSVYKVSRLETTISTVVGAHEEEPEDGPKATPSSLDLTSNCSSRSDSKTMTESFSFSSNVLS
Format: cell-based
`COc1ccc(CN[C@H]2C3CCCN(CC3)[C@H]2C(c2ccccc2)c2ccccc2)c(OC)c1` (some centres undefined) showed an IC50 of 86.3 nM. Compound `Clc1ccccc1CN[C@H]1C2CCCN(CC2)[C@H]1C(c1ccccc1)c1ccccc1` (some centres undefined) has an IC50 of 560 nM. `COc1ccccc1CN[C@H]1C2CCCN(CC2)[C@H]1C(c1ccc(F)cc1)c1ccc(F)cc1` (some centres undefined) gave an IC50 of 310 nM. Compound `COc1ccccc1CN[C@H]1C2CCCN(CC2)[C@H]1C(c1ccccc1)c1ccccc1` (some centres undefined) has an IC50 of 34.3 nM.
